Data set [1] deals with cryopreserved dog hepatocytes. As to the kind of experiment: Hepatocyte metabolite profile with and without ABT (dog). In kind it is in vitro ADME. The conditions noted are these: 4 h, 2 μmol/L. How it is done: (§1) Cryopreserved dog and human hepatocytes were obtained from BioreclamationIVT (Baltimore, MD). […] A stock solution of canagliflozin and DTPQ was added to medium to give a final incubation concentration of 2 μmol/L. The incubations including the media and cells were quenched after 4 hours with an equal volume of acetonitrile containing 200 ng/mL niflumic acid as internal standard. Samples were centrifuged at 3500 g for 10 minutes and the supernatant was analyzed by liquid chromatography coupled to a diode array UV detection and mass spectrometry system consisting of the Acquity ultra‐performance liquid chromatography column, Synapt G2‐S mass spectrometer, and an ultra‐performance liquid chromatography photodiode array detector (Waters, Milford, MA). The chromatographic separation of metabolites was achieved on a Waters 1.7‐μm Acquity BEH C18 (100 × 2.1 mm) column maintained at 60°C. The mobile phase consisted of solvent A (0.2% formic acid in water for DPTQ and 10 mmol/L ammonium acetate in water for canagliflozin) and solvent B (100% acetonitrile). The samples were eluted, at a flow rate of 0.5 mL/min with a gradient for 5 minutes. The LC/MS full scan data were processed by Metabolynx (Waters, Milford, MA) to identify metabolites. Product ion spectra were acquired to confirm the metabolites. The mass spectrometer was operated in positive ion mode with an electrospray ionization source. The parameters for the chamber were: capillary 1.0 kV, sample cone 50 V, source temperature 120°C, desolvation 500°C, and collision energy 25 V. The peak areas for parent, metabolite and internal standard were integrated to allow for comparison between conditions.

The conditions of data set [2]: human, cited from earlier work; for EHC: enterohepatic circulation ref 11.
Data set [3] deals with UGT (glucuronidation). In words: Kidney microsomal glucuronidation assay (human). In kind it is in vitro ADME. The conditions noted are these: kidney microsomes, pH 7.5, human, with 2% BSA. How it is done:
(§2) Intrinsic clearance of the compounds by glucuronidation was conducted in human and dog liver and kidney microsomes. Microsomes (0.5 mg/mL) with or without 2% bovine serum albumin (BSA), 100 mmol/L Tris‐HCl buffer, (pH 7.5), containing 5 mmol/L MgCl2 and 50 µg of alamethicin were mixed and placed on ice for 15 minutes. Canagliflozin or DPTQ (2 µmol/L final concentration) were added, and the mixture was pre‐incubated at 37°C for 3 minutes. A 0‐minute time point was obtained and the reaction initiated by the addition of UDPGA (5 mmol/L final concentration). Aliquots of the incubation (50 µL) were removed at various time points 5, 15, 30, 60 and 120 minutes, and added to the quench solution (1:1 acetonitrile:water). The zero minute time points were also quenched in the same manner. Substrate concentrations were then measured by LC/MS and the intrinsic clearance values (μL/min/mg protein) were calculated using following equation. CLint=-kdep×incubation volume/mg protein
(§3) In which the depletion rate constant (k dep) is the slope determined using linear regression from the log transformed % remaining on the y‐axis vs time on the x‐axis (min^− ^1). […] To determine the unbound intrinsic clearances the microsomal Clint values were divided by the respective microsomal fraction unbound values. The microsomal unbound fraction both with and without 2% BSA was determined as described previously.15

For data set [4], the system named is human intestinal microsomes. More on the design: method as in PMID 27862160. Particulars: human intestinal microsomes ref 6; cited from earlier work.
Data set [5] relates to cryopreserved human hepatocytes. As to the kind of experiment: Hepatocyte metabolite profile with and without ABT (human). In kind it is in vitro ADME. The conditions noted are these: 4 h, 2 μmol/L. As to the method:
as §1

Data set [6] has as its system human intestinal microsomes. In words: Intestinal glucuronidation in human intestinal microsomes. In kind it is in vitro ADME. Particulars: data not shown.
Data set [7] relates to UGT (glucuronidation). In words: Liver microsomal glucuronidation assay (dog). In kind it is in vitro ADME. Particulars: liver microsomes, pH 7.5, dog, without BSA. How it is done:
as §2, §3

The next data set relates to UGT. In words: Liver microsomal glucuronidation assay (dog). In kind it is in vitro ADME. The conditions noted are these: dog liver microsomes, pH 7.5, dog, with 2% BSA. As to the method:
as §2, §3

Another data set addresses T1, P-gp (Homo sapiens, UniProt P08183).
T1 construct: host or cells: MDCKII
In words: Bi‐directional transport across MDCKII cells expressing human P‐gp. The format is in vitro ADME. Particulars: human, MDCK-MDR1, with 2.5 μmol/L LSN335984, uninhibited ratio divided by inhibited ratio; NER >3.0 = P‐gp substrate; read-out: Net efflux ratio. How it is done: MDCKII cells stably expressing human wild‐type P‐gp were obtained from the Netherlands Cancer Institute Amsterdam, The Netherlands). MDCK cells were maintained and the assay was conducted essentially as described previously.12, 13 Transport was measured in both directions across uninhibited and inhibited cell monolayers using a substrate concentration of 5 μmol/L diluted from a 10 mmol/L DMSO stock solution final DMSO concentration of 0.05%) and a single 60‐min time interval.

[8] abbreviates: Clint divided by microsomal unbound fraction, read-out: Clint,u, Liver microsomes.

Here are results for 2 molecules from article PMC6609541, “Enterohepatic circulation of glucuronide metabolites of drugs in dog” (Pharmacology Research & Perspectives, 2019).

Structures are written as SMILES. Read-outs that look alike come from different tables or passages of the source.

T1 sequence (P08183 whole entry): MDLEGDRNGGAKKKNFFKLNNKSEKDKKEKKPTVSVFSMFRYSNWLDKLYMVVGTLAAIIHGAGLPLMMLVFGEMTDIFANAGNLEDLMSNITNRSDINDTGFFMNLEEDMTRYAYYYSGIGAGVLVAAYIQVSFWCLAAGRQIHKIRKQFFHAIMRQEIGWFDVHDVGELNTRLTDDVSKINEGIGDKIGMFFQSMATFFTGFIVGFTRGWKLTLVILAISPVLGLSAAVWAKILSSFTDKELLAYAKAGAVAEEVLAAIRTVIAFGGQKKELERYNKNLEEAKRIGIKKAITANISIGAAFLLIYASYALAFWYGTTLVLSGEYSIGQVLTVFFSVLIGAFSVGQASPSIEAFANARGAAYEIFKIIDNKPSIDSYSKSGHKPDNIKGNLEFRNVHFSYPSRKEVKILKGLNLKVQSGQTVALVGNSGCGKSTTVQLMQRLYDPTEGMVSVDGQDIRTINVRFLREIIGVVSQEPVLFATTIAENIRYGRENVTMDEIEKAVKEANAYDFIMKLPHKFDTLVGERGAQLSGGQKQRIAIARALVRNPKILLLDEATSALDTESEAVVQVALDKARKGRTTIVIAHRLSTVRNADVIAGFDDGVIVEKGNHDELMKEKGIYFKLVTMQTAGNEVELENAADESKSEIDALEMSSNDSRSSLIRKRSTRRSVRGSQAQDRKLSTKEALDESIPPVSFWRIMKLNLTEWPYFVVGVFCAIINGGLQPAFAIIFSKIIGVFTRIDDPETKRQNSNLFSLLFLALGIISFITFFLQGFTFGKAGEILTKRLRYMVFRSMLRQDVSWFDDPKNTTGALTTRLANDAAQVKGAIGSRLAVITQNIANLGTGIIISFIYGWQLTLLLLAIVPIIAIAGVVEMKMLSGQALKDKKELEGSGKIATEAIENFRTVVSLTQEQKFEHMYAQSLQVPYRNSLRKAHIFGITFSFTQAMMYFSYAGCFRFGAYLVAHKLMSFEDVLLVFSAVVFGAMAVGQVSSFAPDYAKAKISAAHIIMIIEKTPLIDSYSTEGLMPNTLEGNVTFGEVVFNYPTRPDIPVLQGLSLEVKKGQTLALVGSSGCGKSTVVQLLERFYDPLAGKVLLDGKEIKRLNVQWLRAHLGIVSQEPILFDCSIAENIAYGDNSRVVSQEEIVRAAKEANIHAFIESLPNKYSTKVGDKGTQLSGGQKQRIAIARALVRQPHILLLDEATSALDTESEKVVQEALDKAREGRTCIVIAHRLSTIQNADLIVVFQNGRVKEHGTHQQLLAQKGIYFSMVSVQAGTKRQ

For the molecule `Cc1ccc([C@@H]2O[C@H](CO)[C@@H](O)[C@H](O)[C@H]2O)cc1Cc1ccc(-c2ccc(F)cc2)s1` [Canagliflozin], the “Peak area (+ABT)” value was found to be 8448 in data set [1] and 2019 in [5]. Further, the “Peak area (‐ABT)” value in [1] is given as 7808; in [5] it was 3414. Also, the EHC result in data set [2] is reported as “No”; in data set [2] (listed as canagliflozin), “negligible”. In addition, the “Urinary excretion % of glucuronide” value in data set [2] (From human 14C study ref 5) is “Moderate ^d (moderate 30%‐70%)”. Also, the microsomal CLint at 2 µmol/L with UGT (glucuronidation) [3] (Clint divided by microsomal unbound fraction, read-out: Clint,u, Kidney microsomes) stood at 222 µL/min/mg; with UGT (glucuronidation) [3] (ND = Clint < 1.8, read-out: Clint, Kidney microsomes), 4 µL/min/mg. Moreover, in [4], the intestinal glucuronidation result is reported as “negligible”.

Take `C[C@H]1c2cccc(CC(C)(C)O)c2C[C@H](CO)N1C(=O)Cc1c(Cl)cccc1Cl` [DPTQ, 2‐(2,6‐dichlorophenyl)‐1‐((1S,3R)‐5‐(2‐hydroxy‐2‐methylpropyl)‐3‐(hydroxymethyl)‐1‐methyl‐3,4‐dihydroisoquinolin‐2(1H)‐yl)ethan‐1‐one]: the intestinal glucuronidation result in data set [6] is “negligible”. In addition, the “Peak area (+ABT)” value came to 244 in [1] and 2364 in data set [5]. In addition, the “Peak area (‐ABT)” value is on record as 33 in data set [1] and 2810 in data set [5]. In addition, the microsomal CLint at 2 µmol/L in the data set with UGT (glucuronidation) [7] (2 µmol/L, 0.5 mg/mL, UDPGA, ND = Clint < 1.8, read-out: Clint, Liver microsomes) is 99 µL/min/mg; with UGT (glucuronidation) [7] (setting [8]) it was 123 µL/min/mg; in the data set on UGT (setting [8]), 667 µL/min/mg; with UGT (ND = Clint < 1.8, read-out: Clint, Liver microsomes) it was 79.4 µL/min/mg. For the same molecule, the efflux ratio at 60 min, 5 μmol/L at P-gp stood at 1.3.
